In assay [1] the test system is pyramidal cell layer of CA1, hippocampus slices. The experiment in a line: hippocampus slice, provocation with bicuculline. More on the design: species or system rat. The following applies: bicuculline 50 μM alone, mean of 4 slices, one mean per series. The text has this:
(§1) Hippocampus slices were obtained from 11 adult male Sprague-Dawlay rats (Charles River Wiga, Sulzbach, Germany). Rats were kept under a reversed day-night cycle for 2 weeks prior start of the experiments, to allow recording of in-vitro activity from slices during the active phase of their circadian rhythm (Dimpfel et al., 1994, Dimpfel et al., 1995). Animals were exsanguinated under ether anaesthesia, the brain was removed in total and the hippocampal formation was isolated under microstereoscopic sight. The midsection of the hippocampus was fixed to the table of a vibrating microtome (Rhema Labortechnik, Hofheim, Germany) using a cyanoacrylate adhesive, submerged in chilled bicarbonate-buffered saline (artificial cerebro spinal fluid (ACSF) NaCl: 124 mM; KCl: 5 mM; CaCl2: 2 mM; MgSO4: 2 mM; NaHCO3: 26 mM; and glucose: 10 mM), and cut into slices of 400 μm thickness. All slices were preincubated for at least 1 h in carbogen ([…])-saturated ACSF (pH 7.4) in a prechamber before use (see also Dimpfel et al., 1991).
During the experiment the slices were held and treated in a special Superfusion chamber (List Electronics, Darmstadt, Germany) at 35° C. according to Haas et al., 1979 (see also: Schiff and Somjen, 1985). Four slices were used from one rat per day under one of the test conditions (control or various concentrations of the S1 compound). […]

The test system is the same in assay [2]. Put plainly: hippocampus slice, provocation with pentylenetetrazol. Further details: species or system rat. The note with it: PTZ 50 μM alone.
Description: as §1
During the experiment the slices were held and treated in a special Superfusion chamber (List Electronics, Darmstadt, Germany) at 35° C. according to Haas et al., 1979 (see also: Schiff and Somjen, 1985). Four slices were used from one rat per day under one of the test conditions (control or various concentrations of the S1 compound). The preparation was superfused with artificial cerebrospinal fluid (ACSF) at 180-230 ml/h. Electrical stimulation (200 μA constant current pulses of 200 μs pulse width) of the Schaffer Collaterals within the […] area and recording of extracellular field potentials from the pyramidal cell layer of CA1 (Dimpfel et al., 1991) as shown in FIG. 4 and FIG. 5 was performed according to conventional electrophysiological methods using the “Labteam” Computer system and “NeuroTool” software package (Medisyst GmbH, Linden, Germany). Measurements were performed at 10 min intervals to avoid potentiation mechanisms. Four stimulations—each 20 seconds apart—were averaged for each time point. […]

Each structure is given as a SMILES string. Several values for one entry are separate records, joined by “and”; a condition that tells them apart may be missing. Equal entries are not always repeated.

With `CN1CCc2cc3c(cc2[C@H]1[C@@H]1OC(=O)c2c1ccc1c2OCO1)OCO3` [Bicuculline], the “population spike amplitude in % of ACSF value, Bicuculline 50 μM, mean (X)” value in assay [1] is 256.6% and 248.7% and 237.6% and 249.6%.

In the case of `C1CCc2nnnn2CC1` [PTZ, 6,7,8,9-tetrahydro-5h-tetrazolo(1,5-a)azepine], in assay [2] (mean of 4 slices), the “population spike amplitude in % of ACSF value, PTZ 50 μM, mean (X)” value came out at 243.9% and the “population spike amplitude, PTZ 50 μM, mean (X)” value is −2854.9 μV. Further, the “population spike amplitude in % of ACSF value, PTZ 50 μM” value in assay [2] (single slices) was 254.2% and 244.7% and 232.8% and 243.7%.

(Values after US20090252786A1, “Use of a Biologically Active Blood Serum for the Treatment of a Disorder Characterized in a Reduced Function of a GABA Receptor” (priority 2008, published 2009).)
